Source: PubChem BioAssay AID1919016 (Molecular Pharmacology Branch, DTP, NCI, 2023)

System: NCI-H196 complex spheroid growth, percent test/control
Test: Anticancer human tumor NCI-H196 cell line growth inhibition [AhR];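 also: seven days of drug exposure starting three days after plating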;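 as to viability, T/C: 100% = DMSO vehicle control wells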
Details: for IC50: curve of first compound; for viability, T/C: stronger effect = lower value; active = viability on the fitted dose curve at most 10% of control; inactive = the rest
Text: Multicellular complex tumor spheroid response to aryl hydrocarbon receptor antagonists in combination with a variety of drugs and investigational agents in selected tumor cell lines
The current study was undertaken to assess response to aryl hydrocarbon receptor antagonists in combination with standard-of-care drugs and investigational agents in solid tumor complex spheroid models. Complex spheroids include a stromal component modeled by human endothelial cells (HUVEC) and fibroblasts modeled by human mesenchymal stem cells (MSCs). The concentration ranges selected for each drug and investigational agent were based upon clinically achievable concentrations if the clinical Cmax of the agent was known.
Compounds. The drugs and investigational agents: BAY 2416964 (NSC825713), GNF351 (NSC835774), CH-223191 (NSC835775), CPI-455 (NSC825282), aza-TdCyd (NSC777586), decitabine (NSC127716), belinostat (NSC758774), entinostat (NSC756642), pevonedistat (NSC761192), tazemetostat (NSC777109), talazoparib (NSC765396), olaparib (NSC753686), selinexor (NSC780203), nedisertib (M3814, NSC802822), bortezomib (NSC756655), venetoclax (NSC766270), doxorubicin (NSC123127), elimusertib (BAY189344, NSC800525), ceralasertib (AZD6738, NSC777638), TAK-243 (NSC785004), alisertib (NSC759677), etoposide (NSC141540), topotecan (NSC609699), eribulin (NSC707389), gemcitabine (NSC613327), carboplatin (NSC241240), cisplatin (NSC119875), and SN-38 (NSC673596) were obtained from the National Cancer Institute (NCI) Developmental Therapeutics Program Chemical Repository (32). The FDA-approved anticancer drug set is available from the Developmental Therapeutics Program at https://dtp.cancer.gov/organization/dscb/obtaining/available plates.htm. […] The stock solutions were prepared in dimethyl sulfoxide (DMSO, Sigma-Aldrich, St. Louis, MO, cat. D2650), except for the platinum compounds which were prepared in saline (Quality Biological, Gaithersburg, MD, cat. 114-055-101), at 800-fold the tested concentration and stored at -70 degrees C prior to their use. All drugs and investigational agents were tested over a range starting from a high concentration at or near the clinical Cmax and decreasing in half-log increments. If the clinical Cmax for an agent had not been determined, the highest concentration tested was 10 microM (Table 1).
Cell Culture. All cells were maintained in an incubator at 37 degrees C and 5% CO2 with 95% humidity. The PDC lines were cultured according to standard operating procedures established by the NCI PDMR (https://pdmr.cancer.gov). Briefly, all PDCs were thawed and cultured in Matrigel-coated flasks prepared with a working solution of 1X Ham's F-12 nutrient mix, without supplementation (Invitrogen, Waltham, MA, cat. 11765054), 100 U/mL penicillin-streptomycin (Invitrogen, cat. 15140122), and 2.5% Matrigel (Corning Inc., Corning, NY, cat. 354248) for the first three passages. All PDCs were cultured in complete DMEM/F-12 media containing advanced DMEM/F-12 (Invitrogen, cat. 12634028), 4.9% defined fetal bovine serum, heat inactivated (HyClone Laboratories Inc., Logan, UT, cat. SH30070.03HI), 389 ng/mL hydrocortisone (Sigma-Aldrich, cat. H4001), 9.7 ng/mL human EGF recombinant protein (Invitrogen, cat. PHG0313), 23.4 microg/mL adenine (Sigma-Aldrich, cat. A2786), 97.3 U/mL penicillin-streptomycin (Invitrogen, cat. 15140122), 1.9 mM L-glutamine (Invitrogen, cat. 25030081), and 9.7 microM Y-27632 dihydrochloride (Tocris Bioscience, Bristol, United Kingdom, cat. 1254). The PDCs were cultured in complete DMEM/F12 media without 10 microM Y-27632 dihydrochloride for at least two passages prior to the screen. The established cell lines NCI-H1341 and […] were cultured in DMEM/F-12, HEPES (Invitrogen, cat. 11330032), 5% defined fetal bovine serum (HyClone Laboratories Inc., cat. SH30070.03), ITS premix universal culture supplement [insulin (5 microg/mL), transferrin (5 microg/mL), and selenious acid (5 ng/mL)] […]

Nc1ncn(C2CC(O)C(CO)S2)c(=O)n1 (stereo not given) + Cc1ccccc1N=Nc1ccc(NC(=O)c2ccnn2C)c(C)c1
> 300 nM: IC50 (second compound 0.1 µM) | IC50 (second compound 0.316 µM) | IC50 (second compound 1 µM) | IC50 (second compound 3.16 µM) | IC50 (second compound 10 µM)
inactive: viability, T/C (second compound 0.1 µM, first compound 0.000949 µM) 95% | viability, T/C (second compound 0.1 µM, first compound 0.003 µM) 93.4% | viability, T/C (second compound 0.1 µM, first compound 0.00949 µM) 99.1% | viability, T/C (second compound 0.1 µM, first compound 0.03 µM) 96.8% | viability, T/C (second compound 0.1 µM, first compound 0.0949 µM) 102% | viability, T/C (second compound 0.1 µM, first compound 0.3 µM) 101% | viability, T/C (second compound 0.316 µM, first compound 0.000949 µM) 105% | viability, T/C (second compound 0.316 µM, first compound 0.003 µM) 96.2% | viability, T/C (second compound 0.316 µM, first compound 0.00949 µM) 104% | viability, T/C (second compound 0.316 µM, first compound 0.03 µM) 96% | viability, T/C (second compound 0.316 µM, first compound 0.0949 µM) 101% | viability, T/C (second compound 0.316 µM, first compound 0.3 µM) 95.4% | viability, T/C (second compound 1 µM, first compound 0.000949 µM) 97.6% | viability, T/C (second compound 1 µM, first compound 0.003 µM) 89.9% | viability, T/C (second compound 1 µM, first compound 0.00949 µM) 97.9% | viability, T/C (second compound 1 µM, first compound 0.03 µM) 87.3% | viability, T/C (second compound 1 µM, first compound 0.0949 µM) 91% | viability, T/C (second compound 1 µM, first compound 0.3 µM) 104% | viability, T/C (second compound 3.16 µM, first compound 0.000949 µM) 89.3% | viability, T/C (second compound 3.16 µM, first compound 0.003 µM) 102% | viability, T/C (second compound 3.16 µM, first compound 0.00949 µM) 100% | viability, T/C (second compound 3.16 µM, first compound 0.03 µM) 93.7% | viability, T/C (second compound 3.16 µM, first compound 0.0949 µM) 97.7% | viability, T/C (second compound 3.16 µM, first compound 0.3 µM) 99.5% | viability, T/C (second compound 10 µM, first compound 0.000949 µM) 85.1% | viability, T/C (second compound 10 µM, first compound 0.003 µM) 82.4% | viability, T/C (second compound 10 µM, first compound 0.00949 µM) 86.2% | viability, T/C (second compound 10 µM, first compound 0.03 µM) 86.2% | viability, T/C (second compound 10 µM, first compound 0.0949 µM) 90.5% | viability, T/C (second compound 10 µM, first compound 0.3 µM) 92.1%
